Assay [1] deals with RAW 264.7 macrophages. Briefly: ROS production assay in LPS-activated macrophages. Conditions: Citral 10 μg/ml; 30 min before and during LPS (1 μg/ml) stimulation, 0-4 h. Format: cell-based, murine. As to the method:
(§1) ROS production was measured as the relative fluorescence intensity. […] The data are expressed as the mean±SD for three separate experiments. *p<0.05, **p<0.01 compared to the LPS-treated group. RAW-Blue™ cells (Murine macrophages RAW264.7 stably transfected with the NF-κB reporter gene) purchased from InvivoGen (San Diego, Calif.). LPS (from Escherichia coli 0111:B4) and mouse antibodies against phospho-ERK1/2, phospho-JNK1/2, and phospho-p38 (all from Sigma, St. Louis, Mo.). Rabbit antibodies against mouse ERK1, JNK1, and p38, and HRP-labeled second antibodies were purchased from Santa Cruz Biotechnology, and IL-1β, IL-6, and TNF-α ELISA kits from R&D Systems. ROS production assay, NO production assay, NF-κB reporter assay, ELISA, and Western blotting were performed as described previously.

In assay [2] the test system is mouse FSGS model (adriamycin-induced, BALB/c mice). In words: Mouse FSGS model: renal histopathology (H&E) and Col-IV immunohistochemistry. Format: in vivo. Conditions: days 14 and 28, Citral 200 mg/kg daily by gavage, p<0.01. As to the method:
(§2) A progressive type of mouse FSGS model was used, particularly characterized by EPHLs, a key histopathology index of progression of FSGS, peri-glomerular inflammation, and progressive glomerular hyalinosis/sclerosis. The FSGS model was induced in 8-week-old male BALB/c mice (National Laboratory Animal Center, Taipei, Taiwan) by intravenous injection of a single dose of adriamycin (0.10 mg/10 g body weight) (Pfizer, New York, N.Y.) as described previously. […] Age- and sex-matched BALB/c mice were used as normal controls. Urine samples were collected in metabolic cages on days 3, 7, 14, 21, and 28. Renal cortical tissues and blood samples were collected when the mice were sacrificed and stored appropriately for further analysis. The concentration of urine protein was determined using BCA kits (Pierce, Rockford, Ill.) as described previously and normalized to urine creatinine (Cr) levels measured using kits (Wako Pure Chemical Industries, Osaka, Japan), as described previously. Serum levels of blood urea nitrogen (BUN) and Cr were determined using BUN kits and Cr kits (both from Fuji Dry-Chem Slide, Fuji Film Medical, Tokyo, Japan), as described previously.
Renal tissues were formalin-fixed, embedded in paraffin, and sections (4 μm) prepared and stained with hematoxylin and eosin (H&E) for renal histopathology as described previously or TUNEL stained for apoptosis as described previously. Renal pathology was examined and renal lesions scored as described previously. For EPHLs and sclerosis, at least 50 glomeruli in sections were examined for each mouse. To detect apoptosis in renal tissues, TUNEL staining was performed using an in situ apoptosis detection kit (Chemicon, Temecula, Calif.) according to the manufacturer's instructions. For immunohistochemistry, methyl Carnoy solution-fixed and paraffin-embedded renal sections were prepared and incubated with goat antibodies against mouse collagen IV (Col-IV) (Southern Biotech, AL) or rabbit antibodies against phosphorylated mouse NF-κB p65 (Cell Signaling Technology, MA), F4/80 (Serotec, Raleigh, N.C.), or CD3 (Serotec), then with horseradish-conjugated rabbit anti-goat IgG antibodies or swine anti-rabbit IgG antibodies (both from Dako, Carpinteria, Calif.). Quantitative image analysis software (Pax-it; Paxcam, VIIIa Park, Ill.) was used to score Col-IV staining and the number of phosphorylated NF-κB p65-, CD3-, F4/80-, or TUNEL-positive cells as described previously.

Assay [3] has as its system CD3+ T cells, F4/80+ macrophages. In words: Mouse FSGS model: renal infiltration of T cells and macrophages (immunohistochemistry). Format: in vivo. Conditions: days 14 and 28. Here is the method: as §2, with “Renal cortical tissues and blood samples were collected when the mice were sacrificed and stored appropriately for further analysis.” left out
Renal tissues were formalin-fixed, embedded in paraffin, and sections (4 μm) prepared and stained with hematoxylin and eosin (H&E) for renal histopathology as described previously or TUNEL stained for apoptosis as described previously. Renal pathology was examined and renal lesions scored as described previously. […]

Assay [4] relates to RAW 264.7 macrophages. In words: NO production assay (Griess reaction) in LPS-activated macrophages. Format: cell-based, murine. Conditions: 30 min preincubation, then 24 h LPS 1 μg/ml; p<0.05. Here is the method: as §1
On the technique in general: The Griess reaction detects nitrite, a stable product of nitric oxide.

Assay [5] deals with ERK1/2, JNK1/2, p38 in RAW 264.7 macrophages. In words: MAPK phosphorylation (Western blotting) in LPS-activated macrophages. Format: cell-based, murine. To be noted: Citral 10 μg/ml; LPS 1 μg/ml 0-60 min; p<0.05. An excerpt:
RAW-Blue™ cells (Murine macrophages RAW264.7 stably transfected with the NF-κB reporter gene) purchased from InvivoGen (San Diego, Calif.). LPS (from Escherichia coli 0111:B4) and mouse antibodies against phospho-ERK1/2, phospho-JNK1/2, and phospho-p38 (all from Sigma, St. Louis, Mo.). Rabbit antibodies against mouse ERK1, JNK1, and p38, and HRP-labeled second antibodies were purchased from Santa Cruz Biotechnology, and IL-1β, IL-6, and TNF-α ELISA kits from R&D Systems. ROS production assay, NO production assay, NF-κB reporter assay, ELISA, and Western blotting were performed as described previously.
(A western blot detects proteins with antibodies after separation by electrophoresis.)

Regarding `CC(C)=CCCC(C)=CC=O` (racemic) [Citral, 3,7-dimethyl-2,6-octadienal], the “LPS-induced increase in ROS production” value with RAW 264.7 macrophages [1] is “reduced”. Further, in assay [2] (H&E), the “glomerular EPHLs” value was “greatly decreased”, the glomerular hyalinosis/sclerosis result is reported as “greatly decreased” and the peri-glomerular inflammation entry was “greatly decreased”. Also, in assay [2] (immunohistochemistry), the “renal Col-IV expression” value is “markedly inhibited”. Also, the “peri-glomerular infiltration of macrophages (F4/80+)” value in assay [3] (p<0.005) was “significantly decreased”. For the same molecule, in assay [3] (p<0.05), the “renal peri-glomerular infiltration of T cells (CD3+)” value is given as “markedly inhibited”. Besides, the “LPS-induced increase in NO generation” value in the assay on RAW 264.7 macrophages [4] is “inhibited”. Further, in assay [5], the “LPS-induced phosphorylation of ERK1/2” value is “significantly inhibited” and the “LPS-induced phosphorylation of JNK1/2” value is listed as “significantly inhibited”.

For the origin of these results see patent US8993637B2 (priority 2013, dated 2015).
